Values quoted from earlier work in patent US20160331794A1, “COMPOSITION FOR USE IN THE TREATMENT OF PERSISTENT COUGH” (ABOCA S.P.A SOCIETÁ AGRICOLA, priority 2013, published 2016).

Columns and labels:
[1] = tested on: cough; conditions: Lee et al. 2000; cited from earlier work
[2] = tested on: night cough in children; conditions: Yoder et al. 2006; cited from earlier work

COc1ccc2c(c1)[C@]13CCCC[C@@H]1[C@H](C2)N(C)CC3 [dextromethorphan]
efficacy in the treatment of coughs versus placebo [1]: only marginally better than the placebo
diminishing night cough in children versus placebo [2]: Neither dextromethorphan nor diphenhydramine have been found to be better than the placebo

CN(C)CCOC(c1ccccc1)c1ccccc1 [diphenhydramine]
diminishing night cough in children versus placebo [2]: Neither dextromethorphan nor diphenhydramine have been found to be better than the placebo
